According to patent publication US20040019026A1, “Compounds useful for treating hypertriglyceridemia” (priority 2000, published 2004):
Where “and” joins values, the source holds several entries; their conditions need not be identical. Equal entries are not always repeated.

Key:
Female CD-1 mice = test: Dexamethasone-induced thymic and splenic atrophy, anti-glucocorticoid effect (Example 4); assay type: in vivo; details: for Spleen Wt. / Thymus Wt.: no DEX
Experimental: Female CD-1 mice were obtained from Charles River Laboratories, Kingston, N.Y. at 43-45 days of age. The mice were housed five per cage in plastic shoebox cages on corn cob bedding in the Fels Animal Facility at 72°±2° F. with 50%±5% humidity and twelve hours of alternate light and darkness. The mice had ad libitum access to Purina chain 5015 and acidified water for pretreatment.
Six days later, the mice were weighed, earmarked and redistributed into six groups for treatment: 1) a control group, 2) a group treated with dexamethasone (“DEX”), a glucocorticoid which induces thymic and splenic atrophy, 3) a group treated with 200 mg/kg 16α-fluoro-5-androsten-17-one (hereinafter “drug”), 4) a group treated with 400 mg/kg of, 5) a group treated with dexamethasone and 200 mg/kg drug and 6) a group treated with dexamethasone and 400 mg/kg drug. The treatment in the groups were as follows and were conducted simuitaneously.
The control group was intubated with 0.2 mL of sesame oil for three days. On the third day after commencement of the intubation, the mice were injected subcutaneously with 0.05 mL of absolute ethanol one hour after the last treatment with sesame oil.
The second group was intubated with 0.2 mL of sesame oil for three days. On the third day after the commencement of the intubation, the mice were injected subcutaneously with 1.6 mg of dexamethasone dissolved in 0.05 mL of absolute ethanol approximately one hour after the last treatment with sesame oil.
The third and fourth groups were intubated with 200 mg/Kg and 400 mg/Kg drug, respectively, suspended in 0.2 mL of sesame oil for three days. After commencement of the intubation, the mice were injected subcutaneously with 0.05 mL of absolute ethanol approximately one hour after the last treatment with sesame oil.
The fifth and sixth groups were intubated with 200 mg/kg and 400 mg/kg, respectively, of drug, suspended in 0.2 mL of sesame oil for three days. On the third day after commencement of the intubation, the mice were injected subcutaneously with 1.6 mg of dexamethasome dissolved in 0.05 mL of absolute ethanol approximately one hour after the last treatment with sesame oil.
All of the mice were sacrificed by an overdose of CO2 approximately 24 hours after the injection of ethanol (first, third and fourth groups) or approximately 24 hours after injection with dexamethasone (second, fifth and sixth groups). The mice were weighed and the thymus was excised, cleaned of adventia, rinsed in phosphate-buffered saline (P.B.S.), blotted and weighed. The spleen was also excised, cleaned, rinsed, blotted and weighed.

[1] = tested on: patients with rheumatoid arthritis; test: Oral fluasterone in rheumatoid arthritis patients, obese vs non-obese: triglycerides (Example 6); assay type: in vivo, human
Experimental: In this clinical trial oral fluasterone (1200 mg) was administered daily to patients with rheumatoid arthritis for 3 to 12 weeks. Nine patients had baseline triglyceride levels 200 mg/dL. These patients were divided into obese (BMI>30) and non-obese (BMI<30) groups. […] However, the conclusion would be the same without the addition of this patient.
The baseline levels was the mean value of week −2, 0 and the treatment levels were the last values obtained (week 3 to 12) for each patient. The obese patients has a BMI of 36.6±4.0 and the non-obese a BMI of 27.1±1.5.

[2] = tested on: male BKS.Cg-m+/+Leprdb mice; test: Seminal vesicle weights, androgenic potency (Example 9); assay type: in vivo
Text: Eight week old male BKS.Cg-m^+/+Lepr^db mice were obtained from Jackson Laboratories. These mice have a point mutation in the leptin receptor gene and produce a truncated receptor with impaired signaling capacity. These animals are severely insulin resistant and manifest an uncontrolled rise in blood sugar, severe depletion of the insulin-producing beta-cells of the pancreatic islets, and death by 10 months of age. The male animals also have very low plasma testosterone levels and as a consequence undeveloped seminal vesicle glands. Administration of androgens to these mice produces an increase in seminal vesicle weights similar to that seen in castrated males. Thus these animals can be used to assess androgenic potency of various compounds.
The mice were housed five per cage on Alphacel bedding with ad libitum access to Purina 5015 chow and acidified water. The mice were housed in the Central Animal Facility (6th floor, Pharmacy building) with twelve hours of alternating light and darkness.
A week later, the mice were treated subcutaneously (s.c.) with 0.05 mL fluasterone (16α-fluoro-5-androsten-17-one) suspended in an Emulphor-saline vehicle to give either a dose of 5 mg/kg s.c. or 20 mg/kg s.c. or intraperitoneally (i.p.) with 0.05 mL of fluasterone suspended in an Emulphor-saline vehicle to give a dose of 5 mg/kg. The Control mice received the Emulphor-saline vehicle s.c.
All the mice were anesthetized lightly with isoflurane before treatment with fluasterone to minimize the risk of stressing the mice while giving the s.c. dose. Their food was removed the afternoon before administration with drug and the chow was to the mice the next morning immediately after treatment. All the mice had their chow removed daily and restored just after fluasterone administration. During the week, the mice had access to chow for approximately 6½ hours, while on the weekends, the mice had approximately 4½ hours of access to chow. Mice were treated daily (weekdays and weekends).
Mice were treated daily with fluasterone, for about one month. Then the mice were sacrificed with an overdose of CO2. The seminal vesicles of each mouse were excised, cleaned of adventitia and the coagulating glands, and any liquid was pressed out and then the glands were weighed on a Mettler AE50 balance.

[3] = 200 mg/kg drug intubated for three days
[4] = 400 mg/kg drug intubated for three days
[5] = 5 mg/kg, i.p. daily about one month, individual mice
[6] = 5 mg/kg, s.c. daily about one month, individual mice
[7] = 20 mg/kg, s.c. daily about one month, individual mice

## C[C@]12CCCCC1=CC[C@@H]1[C@@H]2CC[C@]2(C)C(=O)[C@H](F)C[C@@H]12 [fluasterone, 16α-fluoro-5-androsten-17-one]
Female CD-1 mice; [3]
  Spleen Wt.: 103.5 ± 9.2 mg
  Thymus Wt.: 65.0 ± 5.8 mg
Female CD-1 mice; 400 mg/kg
  Effect on dexamethasone-induced thymic and splenic atrophy: significantly reduced dexamethasone-induced thymic and splenic atrophy
Female CD-1 mice; [4]
  Spleen Wt.: 129.4 ± 17.9 mg
  Thymus Wt.: 74.3 ± 7.1 mg
[1]; 1200 mg oral daily, p=0.0113, group effect
  Decline in triglyceride level, obese vs non-obese: significantly greater decline in triglyceride level than the non-obese
[1]; Non-obese (BMI<30), baseline (mean of week −2, 0)
  Triglycerides (mean ± S.D.): 310 mg/dL and 330 ± 163 (10) mg/dL
[1]; Non-obese (BMI<30), treatment 1200 mg oral daily, last value (week 3 to 12)
  Triglycerides (mean ± S.D.): 248 ± 89.8 (5) mg/dL
[1]; Obese (BMI>30), baseline (mean of week −2, 0)
  Triglycerides (mean ± S.D.): 232 mg/dL and 231 ± 57.1 (10) mg/dL
[1]; Obese (BMI>30), treatment 1200 mg oral daily, last value (week 3 to 12)
  Triglycerides (mean ± S.D.): 135 ± 12.1 (5) mg/dL
[2]; [5]
  Seminal Vesicles: 85.6 mg and 81.8 mg and 71.9 mg and 81.0 mg
  s.v./b.w.: 2.1084 and 1.6166 and 1.5630 and 2.0301
[2]; 5 mg/kg, i.p., Average, p < 0.005
  Seminal Vesicles: 80.1 p < 0.005 mg
[2]; 5 mg/kg, i.p., Average, p < 0.01
  s.v./b.w.: 1.8295
[2]; [6]
  Seminal Vesicles: 40.7 mg and 43.4 mg and 44.5 mg and 42.2 mg and 41.9 mg
  s.v./b.w.: 0.8568 and 1.1361 and 0.9570 and 0.9420 and 0.9566
[2]; 5 mg/kg, s.c., Average
  Seminal Vesicles: 42.5 mg
[2]; 5 mg/kg, s.c., Average, n.s.
  s.v./b.w.: 0.9697 n.s.
[2]; [7]
  Seminal Vesicles: 39.6 mg and 35.8 mg and 35.4 mg and 34.6 mg
  s.v./b.w.: 0.8684 and 1.0000 and 0.8872 and 0.8065
[2]; 20 mg/kg, s.c., Average, n.s.
  Seminal Vesicles: 36.4 n.s. mg
  s.v./b.w.: 0.8905 n.s.
[2]; 200 mg/kg p.o. dose, mouse
  Androgenicity: lack of androgenicity
[2]; i.p. route
  Effect on seminal vesicle weights: highly significant increase in seminal vesicle weights
[2]; s.c. route at much higher doses
  Effect on seminal vesicle weights: no apparent effect on seminal vesicle weights
